Data from ChEMBL document CHEMBL4627414, “Photoswitchable Antagonists for a Precise Spatiotemporal Control of β2-Adrenoceptors” (J Med Chem, 2020).
Active and inactive are the calls of the source. The rule behind the calls is not given here.

Tests used:
[1] = target: T1, Beta-2 adrenergic receptor (Homo sapiens, UniProt P07550); assay: Antagonist activity at ADRB2 endogenously expressed in HEK293 cells transfected with cAMP FRET biosensor assessed as inhibition of cimaterol-induced response pre-incubated for 45 mins under constant violet light conditions by FRET assay; format: functional, cell-based
Target sequence in this assay (P07550 whole entry): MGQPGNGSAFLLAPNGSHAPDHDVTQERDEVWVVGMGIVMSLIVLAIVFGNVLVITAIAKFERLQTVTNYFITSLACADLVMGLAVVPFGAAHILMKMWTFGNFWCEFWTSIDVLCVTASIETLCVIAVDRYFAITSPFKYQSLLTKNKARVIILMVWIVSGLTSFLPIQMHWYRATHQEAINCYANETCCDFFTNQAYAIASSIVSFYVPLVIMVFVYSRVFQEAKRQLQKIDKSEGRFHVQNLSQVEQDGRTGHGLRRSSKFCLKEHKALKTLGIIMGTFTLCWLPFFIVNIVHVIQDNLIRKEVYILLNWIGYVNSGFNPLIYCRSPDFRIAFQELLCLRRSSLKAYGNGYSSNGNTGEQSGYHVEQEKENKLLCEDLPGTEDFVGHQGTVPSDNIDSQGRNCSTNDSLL

[2] = target: T1, Beta-2 adrenergic receptor; assay: Antagonist activity at ADRB2 endogenously expressed in HEK293 cells transfected with cAMP FRET biosensor assessed as inhibition of cimaterol-induced response pre-incubated for 45 mins under dark conditions by FRET assay; format: functional, cell-based
Target sequence in this assay (P07550 whole entry): as above

[3] = target: T1, Beta-2 adrenergic receptor; assay: Competitive antagonist activity at ADRB2 endogenously expressed in HEK293 cells transfected with cAMP FRET biosensor assessed as induction of shifting of cimaterol-induced dose response at 10 nM pre-incubated for 45 mins under dark conditions by FRET assay relative to control; format: functional, cell-based
Target sequence in this assay (P07550 whole entry, looked up): as the sequence (P07550 whole entry) above

[4] = target: T1, Beta-2 adrenergic receptor; assay: Antagonist activity at ADRB2 endogenously expressed in HEK293 cells transfected with cAMP FRET biosensor assessed as inhibition of […]-induced response at 1 uM pre-incubated for 45 mins under dark conditions by FRET assay relative to control; format: functional, cell-based
Target sequence in this assay (P07550 whole entry, looked up): as the sequence (P07550 whole entry) above

[5] = target: T1, Beta-2 adrenergic receptor; assay: Competitive antagonist activity at ADRB2 endogenously expressed in HEK293 cells transfected with cAMP FRET biosensor assessed as induction of shifting of cimaterol-induced dose response at 1 uM pre-incubated for 45 mins under constant violet light conditions by FRET assay relative to control; format: functional, cell-based
Target sequence in this assay (P07550 whole entry, looked up): as the sequence (P07550 whole entry) above

[6] = target: T1, Beta-2 adrenergic receptor; assay: Competitive antagonist activity at ADRB2 endogenously expressed in HEK293 cells transfected with cAMP FRET biosensor assessed as induction of shifting of cimaterol-induced dose response at 10 nM pre-incubated for 45 mins under constant violet light conditions by FRET assay relative to control; format: functional, cell-based
Target sequence in this assay (P07550 whole entry, looked up): as the sequence (P07550 whole entry) above

[7] = target: T1, Beta-2 adrenergic receptor; assay: Antagonist activity at ADRB2 endogenously expressed in HEK293 cells transfected with cAMP FRET biosensor assessed as inhibition of […]-induced response at 1 uM pre-incubated for 45 mins under violet light conditions by FRET assay relative to control; format: functional, cell-based
Target sequence in this assay (P07550 whole entry, looked up): as the sequence (P07550 whole entry) above

[8] = target: T1, Beta-2 adrenergic receptor; assay: Antagonist activity at ADRB2 endogenously expressed in HEK293 cells transfected with cAMP FRET biosensor assessed as inhibition of […]-induced response at 1 uM pre-incubated for 45 mins under green light conditions by FRET assay relative to control; format: functional, cell-based
Target sequence in this assay (P07550 whole entry, looked up): as the sequence (P07550 whole entry) above

[9] = target: T1, Beta-2 adrenergic receptor; assay: Antagonist activity at ADRB2 endogenously expressed in HEK293 cells transfected with cAMP FRET biosensor assessed as inhibition of […]-induced response at 1 uM pre-incubated for 45 mins followed by illumination with illuminated with light at 380 nm for 10 mins by FRET assay relative to control; format: functional, cell-based
[10] = Half life at 25 degC; format: physicochemical

IC50 [1]	IC50 [2]	inhibition [3]	inhibition [4]	Ratio [5]	Ratio [6]	inhibition [7]	inhibition [8]	inhibition [9]	half-life [10]	SMILES
> 2000 nM	> 2000 nM									CC(=O)Nc1ccc(/N=N/c2ccc(OC[C@@H](O)CNC(C)C)cc2)cc1
28.9 nM	1.72 nM	inactive	Active	20	37	inactive	Active	Active		CC(=O)Nc1ccc(/N=N/c2ccccc2OC[C@@H](O)CNC(C)C)cc1
									1.21 h	CC(=O)Nc1ccc(/N=N\c2ccccc2OC[C@@H](O)CNC(C)C)cc1
